Test results as given in patent publication US20230111310A1, “CARBOXYLIC ACID DERIVATIVE-SUBSTITUTED IMINO ARYL COMPOUND, PREPARATION METHOD THEREFOR, HERBICIDAL COMPOSITION AND USE THEREOF” (Qingdao Kingagroot Chemical Compound Co., Ltd., priority 2020, published 2023).

Experiments:
Format in all cases: in vivo
[1] = tested on: Abutilon theophrasti; test: Weeding effect in post-emergence stage; conditions: level of fresh weight growth control rate
Procedure, shortened: (§1)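 Compound, dissolved in acetone and diluted in water with Tween 80 plus methyl oleate EC (1.5 liter/ha), is sprayed onto 2-3 leaf potted plants. Rates span 7.5–500 g/ha. After 3 weeks of greenhouse culture, weeding effect is counted as the mean of triplicates.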

[2] = tested on: Alopecurus japonicus; test: Weeding effect in post-emergence stage; conditions: for Weeding effect in post-emergence stage, Alopecurus japonicus: level of fresh weight growth control rate
Procedure, shortened: as §1

[3] = tested on: Digitaria sanguinalis; test: Weeding effect in post-emergence stage; conditions: for Weeding effect in post-emergence stage, Digitaria sanguinalis: level of fresh weight growth control rate
Procedure, shortened: as §1

[4] = tested on: Eleusine indica; test: Weeding effect in post-emergence stage; conditions: for Weeding effect in post-emergence stage, Eleusine indica: level of fresh weight growth control rate; for activity level (growth control rate) Eleusine indica: post-emergence, 7.5 g/ha, 3 weeks
Procedure, shortened: as §1

[5] = tested on: Setaria viridis; test: Weeding effect in post-emergence stage; conditions: for Weeding effect in post-emergence stage, Setaria viridis: level of fresh weight growth control rate
Procedure, shortened: as §1

[6] = tested on: Amaranthus retroflexus; test: Weeding effect in post-emergence stage; conditions: 7.5 g/ha, 3 weeks
Procedure, shortened: as §1

[7] = tested on: Echinochloa crusgalli; test: Weeding effect in post-emergence stage; conditions: for Weeding effect in post-emergence stage, Echinochloa crusgalli: level of fresh weight growth control rate; for activity level (growth control rate) Echinochloa crusgalli: post-emergence, 7.5 g/ha, 3 weeks
Procedure, shortened: as §1

[8] = tested on: Malachium aquaticum; test: Composition activity test, post-emergence foliage spray
Method: (§2) are as follows, and the others were purchased from reagent companies. The technical materials were all dissolved in acetone and diluted with an aqueous solution containing 0.1% emulsifier Tween-80. The dilution is performed as required.
(§3) Weeds were cultivated by a pot culture method. […] Full and uniform weed seeds were selected, soaked in warm water at 25° C. for 6 hours, and germinated in a 28° C. biochemical incubator (darkness). The weed seeds that had just germinated were evenly placed on the surface of the soil and then covered with 0.5-1 cm soil according to the sizes of seeds.
(§4) The culture was carried out in a controllable sunlight greenhouse at 20 to 30° C., in natural light, and relative humidity of 57% to 72%.
(§5) 3 pots with 20 weed seeds per pot were treated in one treatment with 4 replications per treatment.
(§6) The agents were used for only once in the experiment. In the stage of weeds with 1.5-2 leaves, the weeds were thinned out to maintain 10 weeds per pot and 30 weeds for each treatment, then continued to be cultured to Conyza Canadensis 10 cm in height, other weeds 3-4 leaves stage and treated.
(§7) The well-cultured weeds were evenly placed on a platform with an area of 0.5 m^2, and a solution of agents was sprayed on the stems and leaves thereof by the 3WP-2000-type walking spray tower at a dosage of 450 kg/ha and at a spray pressure of 0.3 MPa. After all the solution was sprayed, the valve was closed. After 30 seconds, the door of the spray tower was opened, and the nutritional bowl was taken out. Then the valve was opened, and the spray tube was cleaned by spraying 50 ml of water. After the treatment, the weeds were routinely cultured in a greenhouse.
(§8) A method for investigating absolute number was employed, wherein whole seedlings of survival weeds were cut off with a blade along the soil surface, and the fresh weight of the weeds was weighed with an analytical balance. For dead weeds, the fresh weight thereof was zero.
(§9) The investigation was performed after 21 days of the treatment for only once.
(§10) An optimum ratio of the two active ingredients was determined by the actual control effect, characteristics of herbicides, and balance of a corresponding formula. Wherein, in the formula, X represented the fresh weight inhibition rate of the active ingredient A in a dosage of P, and Y represented the fresh weight inhibition rate of the active ingredient B in a dosage of Q. The statistical results were shown in the table 6.

[9] = tested on: Lithospermum arvense; test: as above
Method: as §2, §3, §4, §5, §6, §7, §8, §9, §10

[10] = Dose 15 g/ha, fresh weight control rate level

Molecule: COC(=O)C(C)O/N=C/c1cc(-n2c(=O)cc(C(F)(F)F)n(C)c2=O)c(F)cc1Cl (racemic) [Compound 194]
- Weeding effect in post-emergence stage, Abutilon theophrasti ([1]; Dose 7.5 g/ha): 5 (Level 5: growth control rate is above 85%)
- Weeding effect in post-emergence stage, Abutilon theophrasti ([1]; Dose 15 g/ha): 5 (Level 5: growth control rate is above 85%)
- Weeding effect in post-emergence stage, Alopecurus japonicus ([2]; Dose 7.5 g/ha): 4 (Level 4: growth control rate is greater than or equal to 60% and less than 85%)
- Weeding effect in post-emergence stage, Alopecurus japonicus ([2]; Dose 15 g/ha): 5 (Level 5: growth control rate is above 85%)
- Weeding effect in post-emergence stage, Digitaria sanguinalis ([3]; Dose 7.5 g/ha): 5 (Level 5: growth control rate is above 85%)
- Weeding effect in post-emergence stage, Digitaria sanguinalis ([3]; Dose 15 g/ha): 5 (Level 5: growth control rate is above 85%)
- Weeding effect in post-emergence stage, Eleusine indica ([4]; Dose 7.5 g/ha): 5 (Level 5: growth control rate is above 85%)
- Weeding effect in post-emergence stage, Eleusine indica ([4]; Dose 15 g/ha): 5 (Level 5: growth control rate is above 85%)
- activity level (growth control rate) Eleusine indica [4]: 4 (Level 4: growth control rate is greater than or equal to 60% and less than 85%)
- Weeding effect in post-emergence stage, Setaria viridis ([5]; Dose 7.5 g/ha): 5 (Level 5: growth control rate is above 85%)
- Weeding effect in post-emergence stage, Setaria viridis ([5]; Dose 15 g/ha): 5 (Level 5: growth control rate is above 85%)
- activity level (growth control rate) Amaranthus retroflexus [6]: 5 (Level 5: growth control rate is above 85%)
- Weeding effect in post-emergence stage, Echinochloa crusgalli ([7]; Dose 7.5 g/ha): 5 (Level 5: growth control rate is above 85%)
- Weeding effect in post-emergence stage, Echinochloa crusgalli ([7]; Dose 15 g/ha): 5 (Level 5: growth control rate is above 85%)
- activity level (growth control rate) Echinochloa crusgalli [7]: 4 (Level 4: growth control rate is greater than or equal to 60% and less than 85%)

Molecule: COC(=O)[C@H](C)O/N=C/c1cc(-n2c(=O)n(C)c(=S)n(C)c2=O)c(F)cc1Cl [1(S)]
- activity level (growth control rate) Eleusine indica [4]: 1 (Level 1: growth control rate is greater than or equal to 5% and less than 20%)
- activity level (growth control rate) Amaranthus retroflexus [6]: 1 (Level 1: growth control rate is greater than or equal to 5% and less than 20%)
- activity level (growth control rate) Echinochloa crusgalli [7]: 1 (Level 1: growth control rate is greater than or equal to 5% and less than 20%)

Molecule: COC(=O)[C@H](C)O/N=C/c1cc(-n2c(=O)cc(C(F)(F)F)n(C)c2=O)c(F)cc1Cl [194(S)]
- activity level (growth control rate) Eleusine indica [4]: 1 (Level 1: growth control rate is greater than or equal to 5% and less than 20%)
- activity level (growth control rate) Amaranthus retroflexus [6]: 2 (Level 2: growth control rate is greater than or equal to 20% and less than 40%)
- activity level (growth control rate) Echinochloa crusgalli [7]: 1 (Level 1: growth control rate is greater than or equal to 5% and less than 20%)

Molecule: COC(=O)C(C)O/N=C/c1cc(-n2c(=O)n(C)c(=S)n(C)c2=O)c(F)cc1Cl (stereo not drawn) [Compound 1]
- Weeding effect in post-emergence stage, Abutilon theophrasti ([1]; Dose 15 g/ha): 5 (Level 5: growth control rate is above 85%)
- Weeding effect in post-emergence stage, Alopecurus japonicus ([2]; Dose 15 g/ha): 5 (Level 5: growth control rate is above 85%)
- Weeding effect in post-emergence stage, Digitaria sanguinalis ([3]; Dose 15 g/ha): 5 (Level 5: growth control rate is above 85%)
- Weeding effect in post-emergence stage, Eleusine indica ([4]; Dose 15 g/ha): 5 (Level 5: growth control rate is above 85%)
- activity level (growth control rate) Eleusine indica [4]: 3 (Level 3: growth control rate is greater than or equal to 40% and less than 60%)
- Weeding effect in post-emergence stage, Setaria viridis ([5]; Dose 15 g/ha): 5 (Level 5: growth control rate is above 85%)
- activity level (growth control rate) Amaranthus retroflexus [6]: 3 (Level 3: growth control rate is greater than or equal to 40% and less than 60%)
- Weeding effect in post-emergence stage, Echinochloa crusgalli ([7]; Dose 15 g/ha): 5 (Level 5: growth control rate is above 85%)
- activity level (growth control rate) Echinochloa crusgalli [7]: 3 (Level 3: growth control rate is greater than or equal to 40% and less than 60%)

Molecule: COC(=O)CO/N=C/c1cc(-n2c(=O)cc(C(F)(F)F)n(C)c2=O)c(F)cc1Cl [Control compound D, reference compound]
- Weeding effect in post-emergence stage, Alopecurus japonicus (level) [2, 10]: 2 (Level 2: growth control rate is greater than or equal to 20% and less than 40%)
- Weeding effect in post-emergence stage, Digitaria sanguinalis (level) [3, 10]: 3 (Level 3: growth control rate is greater than or equal to 40% and less than 60%)
- Weeding effect in post-emergence stage, Eleusine indica (level) [4, 10]: 3 (Level 3: growth control rate is greater than or equal to 40% and less than 60%)
- activity level (growth control rate) Eleusine indica [4]: 2 (Level 2: growth control rate is greater than or equal to 20% and less than 40%)
- Weeding effect in post-emergence stage, Setaria viridis (level) [5, 10]: 3 (Level 3: growth control rate is greater than or equal to 40% and less than 60%)
- activity level (growth control rate) Amaranthus retroflexus [6]: 2 (Level 2: growth control rate is greater than or equal to 20% and less than 40%)
- Weeding effect in post-emergence stage, Echinochloa crusgalli (level) [7, 10]: 4 (Level 4: growth control rate is greater than or equal to 60% and less than 85%)
- activity level (growth control rate) Echinochloa crusgalli [7]: 1 (Level 1: growth control rate is greater than or equal to 5% and less than 20%)

Molecule: COC(=O)c1c(Cl)nn(C)c1S(=O)(=O)NC(=O)Nc1nc(OC)cc(OC)n1 [halosulfuron methyl]
- Control effect (%) of B applied alone (B) ([8]; B 9 g a.i./ha): 36.4%

Molecule: COCc1cnc(C2=NC(C)(C(C)C)C(=O)N2)c(C(=O)O)c1 (stereo not drawn) [imazamox]
- Control effect (%) of B applied alone (B) ([8]; B 15 g a.i./ha): 27.2%

Molecule: COc1cc(OC)nc(NC(=O)NS(=O)(=O)c2ncccc2C(=O)N(C)C)n1 [nicosulfuron]
- Control effect (%) of B applied alone (B) ([8]; B 3 g a.i./ha): 31.4%

Molecule: CCS(=O)(=O)c1cccnc1S(=O)(=O)NC(=O)Nc1nc(OC)cc(OC)n1 [rimsulfuron]
- Control effect (%) of B applied alone (B) ([8]; B 1.5 g a.i./ha): 26.2%

Molecule: Cc1nn(-c2cc(NS(C)(=O)=O)c(Cl)cc2Cl)c(=O)n1C(F)F [sulfentrazone]
- Control effect (%) of B applied alone (B) ([9]; B 90 g a.i./ha): 26.5%

Molecule: COC(=O)c1csc(C)c1S(=O)(=O)NC(=O)n1nc(OC)n(C)c1=O [thiencarbazone-methyl]
- Control effect (%) of B applied alone (B) ([8]; B 3 g a.i./ha): 41.1%

Molecule: COC(=O)c1sccc1S(=O)(=O)NC(=O)Nc1nc(C)nc(OC)n1 [thifensulfuron methyl]
- Control effect (%) of B applied alone (B) ([8]; B 4.5 g a.i./ha): 30.8%

Molecule: COC(=O)c1ccccc1S(=O)(=O)NC(=O)N(C)c1nc(C)nc(OC)n1 [tribenuron-methyl]
- Control effect (%) of B applied alone (B) ([8]; B 3 g a.i./ha): 27.9%

Molecule: C#CCN1C(=O)C(F)(F)Oc2cc(F)c(-n3c(=O)n(C)c(=S)n(C)c3=O)cc21 [trifludimoxazin]
- Control effect (%) of B applied alone (B) ([9]; B 4.5 g a.i./ha): 31.8%

Molecule: oxadiargyl
- Control effect (%) of B applied alone (B) ([9]; B 30 g a.i./ha): 38.7%
